In PubChem BioAssay AID304 (DTP/NCI, 2004):
“And” between values parts separate entries of the source, which are not always exact repeats. Equal entries are not always repeated. Toxic doses and inconclusive results are not listed.

Test system: Lymphosarcoma Mecca ip in C3AKF1 mice, survival T/C%
Test: NCI In Vivo Anticancer Drug Screen. Data for tumor model Lymphosarcoma Mecca (intraperitoneal) in C3AKF1 (CHKRF1) mice
Details: endpoint: survival time, mean or median, schedule: Q01DX010 (ip), vehicle: saline, higher = longer survival
Method: The antitumor activity of compounds was measured in mice bearing transplantable tumors. Survival or tumor size were measured and the results are expressed as the measurement made in the treated group (T) divided by the measurement made in the vehicle treated control group (C). The tumor model used in this assay is Lymphosarcoma Mecca (intraperitoneal) in C3AKF1 (CHKRF1) mice

N#CCSc1ncnc2nc[nH]c12
T/C (dose: 15.0 mg/kg/injection): 95 % of control and 119 % of control
T/C (dose: 30.0 mg/kg/injection): 90 % of control and 95 % of control
T/C (dose: 60.0 mg/kg/injection): 90 % of control and 95 % of control
T/C (dose: 120.0 mg/kg/injection): 95 % of control

CN(C)/N=N/c1nc[nH]c1C(N)=O
T/C (dose: 400.0 mg/kg/injection): 155 % of control

COC(=O)[C@@H]1c2cc3c(c(O)c2[C@@H](OC2OC(C)C(OC)C(C)(OC)C2OC)C[C@]1(C)O)C(=O)c1c(O)cc2c(c1C3=O)O[C@H]1O[C@]2(C)[C@H](O)[C@@H](N(C)C)[C@@H]1O (some centres undefined)
T/C (dose: 125.0 micrograms/kg/injection): 95 % of control and 100 % of control
T/C (dose: 250.0 micrograms/kg/injection): 110 % of control
T/C (dose: 500.0 micrograms/kg/injection): 100 % of control and 105 % of control

CCN(CC)CCCC(C)Nc1c2ccc(Cl)cc2nc2ccc(OC)cc12 (centres undefined)
T/C (dose: 12.5 mg/kg/injection): 100 % of control
T/C (dose: 25.0 mg/kg/injection): 100 % of control and 111 % of control
T/C (dose: 50.0 mg/kg/injection): 90 % of control and 105 % of control
T/C (dose: 100.0 mg/kg/injection): 95 % of control and 111 % of control

CCOC(N)=O
T/C (dose: 125.0 mg/kg/injection): 90 % of control and 104 % of control
T/C (dose: 250.0 mg/kg/injection): 86 % of control and 95 % of control
T/C (dose: 500.0 mg/kg/injection): 95 % of control and 122 % of control

COc1cc(-c2ccc(Nc3ccccc3C(=O)O)c(OC)c2)ccc1Nc1ccccc1C(=O)O
T/C (dose: 12.5 mg/kg/injection): 111 % of control
T/C (dose: 25.0 mg/kg/injection): 120 % of control and 122 % of control
T/C (dose: 200.0 mg/kg/injection): 105 % of control

CSc1ncnc2nc[nH]c12
T/C (dose: 25.0 mg/kg/injection): 109 % of control
T/C (dose: 50.0 mg/kg/injection): 95 % of control and 118 % of control
T/C (dose: 100.0 mg/kg/injection): 95 % of control and 113 % of control
T/C (dose: 200.0 mg/kg/injection): 104 % of control

S=P(N1CCOCC1)(N1CC1)N1CC1
T/C (dose: 2.5 mg/kg/injection): 88 % of control
T/C (dose: 5.0 mg/kg/injection): 88 % of control
T/C (dose: 10.0 mg/kg/injection): 88 % of control

N#[N+]c1cnc([O-])[nH]c1=O
T/C (dose: 5.0 mg/kg/injection): 157 % of control

Nc1nc(=S)c2ncn(C3OC(CO)C(O)C3O)c2[nH]1 (centres undefined)
T/C (dose: 1.0 mg/kg/injection): 115 % of control and 120 % of control
T/C (dose: 2.0 mg/kg/injection): 115 % of control
T/C (dose: 4.0 mg/kg/injection): 105 % of control and 115 % of control
T/C (dose: 8.0 mg/kg/injection): 90 % of control and 105 % of control

CS(=O)(=O)OCCCl
T/C (dose: 18.8 mg/kg/injection): 100 % of control
T/C (dose: 37.5 mg/kg/injection): 113 % of control
T/C (dose: 75.0 mg/kg/injection): 100 % of control

NC(=O)n1cccn1
T/C (dose: 25.0 mg/kg/injection): 90 % of control
T/C (dose: 50.0 mg/kg/injection): 100 % of control
T/C (dose: 100.0 mg/kg/injection): 100 % of control
T/C (dose: 200.0 mg/kg/injection): 100 % of control

Cc1cc2nc3c(=O)[nH]c(=O)nc-3n(CC(O)C(O)C(O)C(O)CO)c2cc1C (centres undefined)
T/C (dose: 25.0 mg/kg/injection): 95 % of control
T/C (dose: 50.0 mg/kg/injection): 90 % of control and 95 % of control
T/C (dose: 100.0 mg/kg/injection): 90 % of control and 100 % of control
T/C (dose: 200.0 mg/kg/injection): 90 % of control and 100 % of control

N=C(N)c1ccc(Nc2ccc(C(=N)N)cc2)cc1
T/C (dose: 3.0 mg/kg/injection): 100 % of control
T/C (dose: 6.0 mg/kg/injection): 90 % of control and 100 % of control
T/C (dose: 12.0 mg/kg/injection): 100 % of control and 110 % of control
T/C (dose: 24.0 mg/kg/injection): 100 % of control

Clc1ncnc2nc[nH]c12
T/C (dose: 7.5 mg/kg/injection): 90 % of control
T/C (dose: 15.0 mg/kg/injection): 95 % of control and 100 % of control
T/C (dose: 30.0 mg/kg/injection): 86 % of control and 95 % of control
T/C (dose: 60.0 mg/kg/injection): 86 % of control
